This is an account of results in patent US4252808A, “β-Lactam antibacterial agents, their use in pharmaceutical compositions, the process for their preparation and intermediates for use in that process” (Beecham Group Limited, priority 1978, dated 1981).

Molecules are shown by their SMILES. ≈ marks a conversion by molar mass, not a printed value. Counter-ions that a name gives are not always drawn.

Assay type in all cases: cell-based
The test system of assay [1] is S. aureues Russell. Nature of the assay: MIC, serial dilution in DST agar with 10% horse blood (Table 2). As to conditions: Staphylococcus aureus, inoculum diluted 10^-2. An excerpt:
(§1) *Serial dilution in DST agar containing 10% horse blood, inoculum 0.001 m
(§2) broth culture diluted 10^-2 for Grampositive and 10^-4 for
(§3) Gramnegative organisms.

Assay [2] relates to S. aureus 1517. Described as above. As to conditions: Staphylococcus aureus, inoculum diluted 10^-2.
From the text: as §1, §2, §3

Assay [3] deals with B. subtilis. The description is as above. As to conditions: Bacillus subtilis, inoculum diluted 10^-2.
From the text: as §1, §2, §3

For assay [4], the system named is P. morganii 1580. The assay is described as above. As to conditions: Morganella morganii, inoculum diluted 10^-4.
From the text: as §1, §2, §3

For assay [5], the system named is P. mirabilis C 977. The description is as above. As to conditions: Proteus mirabilis, C977, inoculum diluted 10^-4.
From the text: as §1, §2, §3

For assay [6], the system named is K. aerogenes A. The assay is described as above. As to conditions: Klebsiella aerogenes, inoculum diluted 10^-4.
From the text: as §1, §2, §3

The subject of assay [7] is E. coli 0111. The assay is described as above. As to conditions: Escherichia coli, inoculum diluted 10^-4.
From the text: as §1, §2, §3

For assay [8], the system named is P. rettgeri WM 16. Described as above. As to conditions: Providencia rettgeri, WM16, inoculum diluted 10^-4.
From the text: as §1, §2, §3

Assay [9] deals with S. faecalis 1. Described as above. As to conditions: Enterococcus faecalis, inoculum diluted 10^-2.
From the text: as §1, §2, §3

The test system of assay [10] is E. cloacae Nl. Described as above. As to conditions: Enterobacter cloacae, inoculum diluted 10^-4.
From the text: as §1, §2, §3

For assay [11], the system named is S. pyogenes CN 10. The description is as above. As to conditions: Streptococcus pyogenes, CN10, inoculum diluted 10^-2.
From the text: as §1, §2, §3

Assay [12] relates to S. pneumoniae CN 33. The description is as above. As to conditions: Streptococcus pneumoniae, CN33, inoculum diluted 10^-2.
From the text: as §1, §2, §3

Assay [13] relates to S. aureus 1517. The assay is described as follows: MIC, serial dilution in nutrient agar with 5% horse blood (Table 1). As to conditions: Staphylococcus aureus, inoculum 0.001 ml undiluted broth culture. As for the experimental part: (§4) | *Serial dilution in nutrient agar containing 5% horse blood, inoculum | 0.001 ml undiluted broth culture.
In assay [14] the test system is B. subtilis. The description is as above. As to conditions: Bacillus subtilis, inoculum 0.001 ml undiluted broth culture. The method, then:
as §4

In assay [15] the test system is P. mirabilis C 977. The description is as above. As to conditions: Proteus mirabilis, C977, inoculum 0.001 ml undiluted broth culture. As for the experimental part:
as §4

Assay [16] concerns K. aerogenes A. The description is as above. As to conditions: Klebsiella aerogenes, inoculum 0.001 ml undiluted broth culture. As for the experimental part: as §4
Assay [17] deals with S. aureus Russell. The assay is described as above. As to conditions: Staphylococcus aureus, inoculum 0.001 ml undiluted broth culture. The method, then: as §4
Assay [18] relates to P. rettgeri. The description is as above. As to conditions: Providencia rettgeri, inoculum 0.001 ml undiluted broth culture. The method, then: as §4
Assay [19] concerns E. coli JT 4. Described as above. As to conditions: Escherichia coli, JT4, inoculum 0.001 ml undiluted broth culture. The method, then: as §4
Assay [20] concerns S. faecalis 1. The description is as above. As to conditions: Enterococcus faecalis, inoculum 0.001 ml undiluted broth culture. The method, then:
as §4

Assay [21] has as its system E. cloacae Nl. The description is as above. As to conditions: Enterobacter cloacae, inoculum 0.001 ml undiluted broth culture. The method, then:
as §4

For assay [22], the system named is P. morganii. Described as above. As to conditions: Morganella morganii, inoculum 0.001 ml undiluted broth culture. As for the experimental part: as §4
The test system of assay [23] is S. aureus Oxford. The description is as above. As to conditions: Staphylococcus aureus, inoculum 0.001 ml undiluted broth culture. The method, then:
as §4

Assay [24] concerns S. aureus Oxford. Nature of the assay: MIC, serial dilution in DST agar with 10% horse blood (Table 2). As to conditions: Staphylococcus aureus, inoculum diluted 10^-2.
From the text: as §1, §2, §3

Assay [25] has as its system S. pyogenes CN 10. Nature of the assay: MIC, serial dilution in nutrient agar with 5% horse blood (Table 1). As to conditions: Streptococcus pyogenes, CN10, inoculum 0.001 ml undiluted broth culture. As for the experimental part: as §4

As for `CCSCC(=O)NC1C(=O)N2C(C(=O)O)=C(C)c3cnnn3C12` [Compound 48, (3aR,4S)-4,5-Dihydro-5-oxo-8-methyl-4-ethylthioacetamido 3aH-azeto[1,2a]v-triazolo[3,4c]pyrimidine-7-carboxylic acid], the MIC (usually the least concentration at which growth counts as inhibited) worked out at 5 µg/mL (≈ 14.8 µM) in assay [1]; 25 µg/mL (≈ 74.1 µM) in assay [2]; 0.2 µg/mL (≈ 0.593 µM) in assay [3]; 25 µg/mL (≈ 74.1 µM) in assay [4]; 10 µg/mL (≈ 29.6 µM) in assay [5]; 50 µg/mL (≈ 148 µM) in assay [6]. Also, the minimal inhibitory concentration (MIC) is 50 µg/mL (≈ 148 µM) in [7]; over 100 µg/mL in [8]; 25 µg/mL (≈ 74.1 µM) in [9]; over 100 µg/mL in assay [10]; 0.5 µg/mL (≈ 1.48 µM) in [11]; 1 µg/mL (≈ 2.96 µM) in assay [12].
Consider `CC1=C(C(=O)O)N2C(=O)[C@@H](NC(=O)[C@H](N)c3ccccc3)[C@H]2n2nncc21` [Compound 46, (3aR,4S)-4,5-Dihydro-5-oxo-8-methyl-4-D-α-phenylglycylamino-3aH-azeto[1,2-a]v-triazolo[3,4-c]pyrimidine-7-carboxylic acid trifluoroacetic acid salt], for which the minimal inhibitory concentration (MIC) in assay [13] is over 100 µg/mL; in [14], 100 µg/mL; in [15], over 100 µg/mL; in assay [16], over 100 µg/mL; in assay [17], over 100 µg/mL; in [18] it was over 100 µg/mL. The minimal inhibitory concentration (MIC) in assay [19], in [20], in assay [21], in assay [22] and in [23] was over 100 µg/mL in each case.
Regarding `CC1=C(C(=O)O)N2C(=O)[C@@H](NC(=O)C(F)(F)F)[C@H]2n2nncc21` [Compound 51, (3aR,4S)-4,5-Dihydro-5-oxo-8-methyl-4-trifluoroacetamido 3aH-azeto[1,2-a]v-triazolo[3,4-c]pyrimidine-7-carboxylic acid], the MIC in [1] is over 100 µg/mL; in assay [2], over 100 µg/mL; in assay [3], 5 µg/mL (≈ 15.1 µM); in assay [4], over 100 µg/mL; in [5], over 100 µg/mL; in assay [6], over 100 µg/mL. In addition, the MIC in assay [7] is 100 µg/mL (≈ 302 µM); in assay [8], over 100 µg/mL; in assay [9], 100 µg/mL (≈ 302 µM); in [10], over 100 µg/mL; in [11] it was 25 µg/mL (≈ 75.5 µM); in assay [12], 50 µg/mL (≈ 151 µM). In assay [24], this compound returned a minimum inhibitory concentration (MIC) of over 100 µg/mL.
For `CO/N=C(\C(=O)N[C@@H]1C(=O)N2C(C(=O)O)=C(C)c3cnnn3[C@H]12)c1ccco1` [Compound 50, (3aR,4R)-4,5-Dihydro-5-oxo-8-methyl-4-[(2-methoxyimino-2-fur-2'-yl)acetamido]-3aH-azeto[1,2-a]v-triazolo[3,4-c]pyrimidine-7-carboxylic acid], the MIC worked out at 25 µg/mL (≈ 64.7 µM) in [1]; 100 µg/mL (≈ 259 µM) in assay [2]; 5 µg/mL (≈ 12.9 µM) in assay [3]; 100 µg/mL (≈ 259 µM) in [4]; 50 µg/mL (≈ 129 µM) in assay [5]; 100 µg/mL (≈ 259 µM) in [6]. Further, the MIC in [7] was 100 µg/mL (≈ 259 µM); in assay [8], over 100 µg/mL; in [9] it was over 100 µg/mL; in [10] it was over 100 µg/mL; in [11], 1 µg/mL (≈ 2.59 µM); in [12] it was 10 µg/mL (≈ 25.9 µM).
As for `CC1=C(C(=O)O)N2C(=O)[C@@H](NC(=O)Cn3ncnn3)[C@H]2n2nncc21` [Compound 47, (3aR,4S)-4,5-Dihydro-5-oxo-8-methyl-4-(2-tetrazolylacetamido)-3aH-azeto[1,2-a]v-triazolo[3,4-c]pyrimidine-7-carboxylic acid], the minimum inhibitory concentration (MIC) is over 100 µg/mL in assay [13]; 0.5 µg/mL (≈ 1.45 µM) in [14]; over 100 µg/mL in [15]; over 100 µg/mL in assay [16]; 5 µg/mL (≈ 14.5 µM) in assay [17]; over 100 µg/mL in [18]. Also, the MIC in [19] was over 100 µg/mL; in [20] it was 50 µg/mL (≈ 145 µM); in assay [21], over 100 µg/mL; in [22], over 100 µg/mL; in [25] it was 1 µg/mL (≈ 2.9 µM); in assay [23], 2.5 µg/mL (≈ 7.24 µM).
Regarding `CC(=O)OCC1=C(C(=O)O)N2C(=O)[C@@H](NC(=O)Cc3cccs3)[C@H]2n2nncc21` [Compound 57, (3aR,4S) 4,5-Dihydro-5-oxo-8-acetoxymethyl-4-(2-thienylacetamido)-3aH-azeto[1,2-a]v-triazolo[3,4-c]pyrimidine-7-carboxylic acid], the minimum inhibitory concentration (MIC) was over 100 µg/mL in assay [13]; 100 µg/mL (≈ 240 µM) in assay [14]; over 100 µg/mL in assay [15]; over 100 µg/mL in [16]; over 100 µg/mL in assay [17]; over 100 µg/mL in assay [18]. Further, the minimum inhibitory concentration (MIC) in assay [19], in assay [20], in [21], in assay [22], in assay [25] and in assay [23] was over 100 µg/mL each time.
Take `Cc1nnc(SCC2=C(C(=O)O)N3C(=O)[C@@H](NC(=O)Cc4cccs4)[C@H]3n3nncc32)s1` [Compound 60, (3aR,4S) 4,5-Dihydro-5-oxo-8-[5-methyl(1,3,4-thiadiazol-2-yl)thiomethyl]-4-(2-thienylacetamido)-3aH-azeto[1,2-a]-v-triazolo[3,4-c]pyrimidine-7-carboxylic acid]: the minimum inhibitory concentration (MIC) is 25 µg/mL (≈ 51.1 µM) in [1]; 100 µg/mL (≈ 204 µM) in [2]; 5 µg/mL (≈ 10.2 µM) in assay [3]; over 100 µg/mL in assay [4]; over 100 µg/mL in [5]; over 100 µg/mL in assay [6]. The MIC was over 100 µg/mL in assay [7]; over 100 µg/mL in assay [8]; 25 µg/mL (≈ 51.1 µM) in [9]; over 100 µg/mL in assay [10]; 2.5 µg/mL (≈ 5.11 µM) in [11]; 0.5 µg/mL (≈ 1.02 µM) in assay [12]. Also, the minimum inhibitory concentration (MIC) in [13] was over 100 µg/mL; in assay [14], 50 µg/mL (≈ 102 µM); in [15], over 100 µg/mL; in assay [16] it was over 100 µg/mL; in assay [17] it was over 100 µg/mL; in [18], over 100 µg/mL. The minimum inhibitory concentration (MIC) in [19], in [20], in assay [21], in assay [22], in assay [25] and in assay [23] was over 100 µg/mL each time.
On to `CC1=C(C(=O)O)N2C(=O)[C@@H](NC(=O)[C@H](O)c3ccccc3)[C@H]2n2nncc21` [Compound 42, (3aR,4S) 4,5-Dihydro-5-oxo-8-methyl-4-D-mandelylamino-3aH-azeto[1,2-a]v-triazolo[3,4-c]pyrimidine-7-carboxylic acid], for which the minimal inhibitory concentration (MIC) in assay [13] is over 100 µg/mL; in [14] it was 1 µg/mL (≈ 2.71 µM); in assay [15], over 100 µg/mL; in [16], over 100 µg/mL; in assay [17], over 100 µg/mL; in [18], over 100 µg/mL. Moreover, the MIC is over 100 µg/mL in [19]; over 100 µg/mL in [20]; over 100 µg/mL in assay [21]; 100 µg/mL (≈ 271 µM) in [22]; 25 µg/mL (≈ 67.7 µM) in assay [23].
Consider `CC1=C(C(=O)O)N2C(=O)[C@@H](NC(=O)CC#N)[C@H]2n2nncc21` [Compound 49, (3aR,4S)-4,5-Dihydro-5-oxo-8-methyl-4-cyanoacetamido 3aH-azeto[1,2a]v-triazolo[3,4-c]pyrimidine-7-carboxylic acid], for which the MIC stood at 25 µg/mL (≈ 82.7 µM) in assay [1]; 100 µg/mL (≈ 331 µM) in [2]; 2.5 µg/mL (≈ 8.27 µM) in assay [3]; 100 µg/mL (≈ 331 µM) in assay [4]; 50 µg/mL (≈ 165 µM) in [5]; 100 µg/mL (≈ 331 µM) in assay [6]. The MIC was 100 µg/mL (≈ 331 µM) in assay [7]; over 100 µg/mL in [8]; 25 µg/mL (≈ 82.7 µM) in assay [9]; over 100 µg/mL in assay [10]; 2.5 µg/mL (≈ 8.27 µM) in [11]; 5 µg/mL (≈ 16.5 µM) in assay [12]. In [24], this compound displayed a minimal inhibitory concentration (MIC) of 5 µg/mL (≈ 16.5 µM).
